Experiment: xn = mol fraction of the nth substance listed, in the solute-free solvent

CC(C)OC(=O)C(C)NP(=O)(OCC1OC(n2ccc(=O)[nH]c2=O)C(C)(F)C1O)Oc1ccccc1 (configuration not stated) + CC(C)=O + O
solubility (g/100 g solution)
Conditions | 278.15 K | 283.15 K | 288.15 K | 293.15 K | 298.15 K | 303.15 K | 308.15 K | 313.15 K | 318.15 K
x2 = 0.03333 | 0.447 | 0.659 | 0.884 | 1.19 | 1.57 | 2.08 | 2.72 | 3.52 | 4.39
x2 = 0.07199 | 1.86 | 2.63 | 3.43 | 4.47 | 5.72 | 7.3 | 9.16 | 11.4 | 13.7
x2 = 0.1174 | 3.81 | 5.24 | 6.7 | 8.54 | 10.7 | 13.3 | 16.2 | 19.6 | 23.1
x2 = 0.1714 | 5.39 | 7.25 | 9.19 | 11.6 | 14.2 | 17.4 | 21 | 25.1 | 29.1
x2 = 0.2368 | 6.68 | 8.82 | 11.1 | 13.8 | 16.9 | 20.4 | 24.2 | 28.4 | 32.6
x2 = 0.3176 | 8.37 | 10.8 | 13.6 | 16.7 | 20.2 | 24 | 28.1 | 32.4 | 36.8
x2 = 0.42 | 11.2 | 14.2 | 17.5 | 21.1 | 24.9 | 28.9 | 33.3 | 37.8 | 42.6
x2 = 0.5538 | 15 | 18.1 | 21.8 | 26.1 | 30.7 | 35.3 | 40.1 | 45 | 49.6
x2 = 0.7363 | 18.3 | 22.9 | 27.4 | 32.1 | 37.1 | 42.2 | 47 | 51.8 | 56.6

Nc1ccc(Oc2ccc(N)cc2)cc1 + COCCO + CCO
solubility (g/100 g solution)
Conditions | 293.15 K | 298.15 K | 303.15 K | 308.15 K | 313.15 K | 318.15 K | 323.15 K | 328.15 K | 333.15 K
x2 = 0.06303 | 0.499 | 0.623 | 0.747 | 0.912 | 1.12 | 1.28 | 1.53 | 1.85 | 2.05
x2 = 0.1315 | 0.717 | 0.756 | 1.15 | 1.31 | 1.47 | 1.66 | 2.05 | 2.13 | 2.67
x2 = 0.206 | 1.06 | 1.1 | 1.51 | 1.67 | 1.81 | 2.26 | 2.59 | 2.89 | 3.33
x2 = 0.2875 | 1.41 | 1.52 | 2.06 | 2.16 | 2.37 | 2.9 | 3.32 | 3.5 | 4.01
x2 = 0.3771 | 1.82 | 2.06 | 2.54 | 2.67 | 3.1 | 3.47 | 4.03 | 4.26 | 4.95
x2 = 0.4759 | 2.25 | 2.54 | 3.08 | 3.31 | 3.71 | 4.25 | 4.81 | 4.96 | 5.85
x2 = 0.5855 | 2.84 | 3.2 | 3.71 | 4.1 | 4.42 | 5.1 | 5.68 | 6.03 | 6.84
x2 = 0.7077 | 3.66 | 3.97 | 4.45 | 4.86 | 5.25 | 6.05 | 6.65 | 7.22 | 7.97
x2 = 0.8449 | 4.52 | 4.75 | 5.33 | 5.75 | 6.21 | 6.99 | 7.7 | 8.23 | 9.05
